Assay results taken from PubChem BioAssay (NCI).
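Where inhibition never reached the appropriate level, the endpoint shown equals the highest concentration tested. Otherwise, values were interpolated linearly from a five-concentration, 48-hour dose response in 96-well plates. TGI denotes the concentration required for complete inhibition of growth.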

tested on: MOLT-4 leukemia; experiment: NCI-60 cell line screen, 48 h

Row | Compound | TGI [µM]
1 | CN(C)CN(C)c1nc(N(C)C)nc(N(C)CN(C)C)n1 | 69.5
2 | O=C(Cc1ccccc1)NN1C(=O)/C(=C\c2ccccc2O)SC1=Nc1ccccc1 | > 100
3 | COc1ccc2c(c1)CCC/C2=N\NS(=O)(=O)c1c(C)cc(C)cc1C | 66.1
4 | CSCCCNC(=O)[C@H](CSC)NC(=O)c1csc(CCNC(=O)[C@@H](NSc2ccccc2[N+](=O)[O-])C(C)O)n1 (some centres undefined) | > 100
5 | CN(C)/C=C/C=C(/C=N/S(=O)(=O)C(F)(F)F)C1C=CN(S(=O)(=O)C(F)(F)F)C=C1 | 71
6 | Cc1ccc(S(=O)(=O)Nn2c(O)c(C#N)c(-c3ccc([N+](=O)[O-])cc3)c(C#N)c2=O)cc1 | > 100
7 | CC(C)[Si](OCC1CC(C#N)OC(C)(C)O1)(C(C)C)C(C)C (centres undefined) | 41.1
8 | CC(=O)Nc1ccc(-c2nnc(SCC(=O)Nc3ccc(Cl)cc3)o2)cc1 | 32.8
9 | Cc1ccccc1NC(=O)Cc1csc(N=Nc2c(O)[nH]c3ccccc23)n1 | > 100
10 | FC(F)(F)c1ccc2nc(Sc3ccc4ccccc4c3)cnc2c1 | > 100
11 | COc1ccc2c([nH]c3c(O)c(-c4c(C)cc5c([nH]c6c(CC=C(C)C)c(OC)ccc65)c4O)c(C)cc32)c1CC=C(C)C | > 100
12 | CC(=O)OCC1OC(n2c(-c3ccccc3)c(N=Nc3ccc(C)cc3)c(C)c(C#N)c2=S)C(OC(C)=O)C(OC(C)=O)C1OC(C)=O (centres undefined) | 55.2
13 | CN1CCC2(CC1)C(=NC1CCCCC1)NC(=O)N2c1ccccc1 | > 100
14 | CC(C)=NOC(=O)Nc1cccc2c1OCO2 | > 100
15 | Cc1ccc(/C=C2/N=C(N/N=C\c3ccccc3)NC2=O)cc1 | 72.2
16 | O=C(Nc1ccc(Cl)cc1)c1cc(S(=O)(=O)Nc2n[nH]c(=O)n2-c2ccccc2)c(S)cc1Cl | > 100
17 | Cc1csc(-n2c(C)nc3cc(Cl)ccc3c2=O)n1 | > 100

tested on: PC-3 prostate; experiment: NCI-60 cell line screen, 48 h

Row | Compound | TGI [µM]
18 | O=C1CC(c2ccccc2)S(=O)c2ccccc2N1 (centres undefined) | > 100
19 | CC1(C)CC(=O)C2=C(C1)OC1(CC2c2ccc(Cl)cc2)CC(c2ccc(Cl)cc2)C2=C(CC(C)(C)CC2=O)O1 (centres undefined) | > 65.9
20 | O=C(O)c1ccc(N/C(=C(/C(Cl)=C(Cl)Cl)[N+](=O)[O-])n2nnc3ccccc32)cc1 | > 100
21 | CCn1c2ccccc2c2cc(Nc3cc(C)[nH]c(=O)n3)ccc21 | > 100
22 | C(#Cc1ccccc1)SC1=C(c2ccccc2)S/C(=C(\SC#Cc2ccccc2)c2ccccc2)S1 | > 100
23 | COC(=O)c1cc(/C=C\c2cc(OC)ccc2OC)ccc1OC | > 100
24 | CCOC(=O)C(C(=O)COC(C)(C)C)[C@@H]1C=C[C@H](OC(C)=O)C1 (some centres undefined) | > 100
25 | COc1ccc2c(c1)CCC/C2=N\NS(=O)(=O)c1c(C)cc(C)cc1C | > 100
26 | CSCCCNC(=O)[C@H](CSC)NC(=O)c1csc(CCNC(=O)[C@@H](NSc2ccccc2[N+](=O)[O-])C(C)O)n1 (some centres undefined) | > 100
27 | Cc1ccc(S(=O)(=O)Nn2c(O)c(C#N)c(-c3ccc([N+](=O)[O-])cc3)c(C#N)c2=O)cc1 | > 100
28 | Cc1ccccc1NC(=O)Cc1csc(N=Nc2c(O)[nH]c3ccccc23)n1 | 37.2
29 | COc1ccc(-n2cnc3c(NC(Cc4ccccc4)C(=O)O)ncnc32)cc1 (centres undefined) | > 100
30 | CC(C)=NOC(=O)Nc1cccc2c1OCO2 | > 100
31 | Cc1ccc(/C=C2/N=C(N/N=C\c3ccccc3)NC2=O)cc1 | > 100
32 | Cc1csc(-n2c(C)nc3cc(Cl)ccc3c2=O)n1 | > 100

tested on: RXF 393 renal; experiment: NCI-60 cell line screen, 48 h

Row | Compound | TGI [µM]
33 | CC1(C)CC(=O)C2=C(C1)OC1(CC2c2ccc(Cl)cc2)CC(c2ccc(Cl)cc2)C2=C(CC(C)(C)CC2=O)O1 (centres undefined) | 94.3
34 | O=c1c2ccccc2nc(-c2ccccc2)n1NC(=S)Nc1cccc(Cl)c1 | 67.1
35 | CCn1c2ccccc2c2cc(Nc3cc(C)[nH]c(=O)n3)ccc21 | > 100
36 | CN(C)CN(C)c1nc(N(C)C)nc(N(C)CN(C)C)n1 | 38.9
37 | O=C(Cc1ccccc1)NN1C(=O)/C(=C\c2ccccc2O)SC1=Nc1ccccc1 | > 100
38 | CSCCCNC(=O)[C@H](CSC)NC(=O)c1csc(CCNC(=O)[C@@H](NSc2ccccc2[N+](=O)[O-])C(C)O)n1 (some centres undefined) | > 100
39 | Cc1ccc(S(=O)(=O)Nn2c(O)c(C#N)c(-c3ccc([N+](=O)[O-])cc3)c(C#N)c2=O)cc1 | > 100
40 | CC(C)[Si](OCC1CC(C#N)OC(C)(C)O1)(C(C)C)C(C)C (centres undefined) | 31.9
41 | CC(=O)Nc1ccc(-c2nnc(SCC(=O)Nc3ccc(Cl)cc3)o2)cc1 | 22.6
42 | Cc1ccccc1NC(=O)Cc1csc(N=Nc2c(O)[nH]c3ccccc23)n1 | 69.5
43 | FC(F)(F)c1ccc2nc(Sc3ccc4ccccc4c3)cnc2c1 | 92.6
44 | COc1ccc2c([nH]c3c(O)c(-c4c(C)cc5c([nH]c6c(CC=C(C)C)c(OC)ccc65)c4O)c(C)cc32)c1CC=C(C)C | > 100
45 | CC(=O)OCC1OC(n2c(-c3ccccc3)c(N=Nc3ccc(C)cc3)c(C)c(C#N)c2=S)C(OC(C)=O)C(OC(C)=O)C1OC(C)=O (centres undefined) | 50.7
46 | CN1CCC2(CC1)C(=NC1CCCCC1)NC(=O)N2c1ccccc1 | > 100
47 | CC(C)=NOC(=O)Nc1cccc2c1OCO2 | > 100
48 | Cc1ccc(/C=C2/N=C(N/N=C\c3ccccc3)NC2=O)cc1 | 66
49 | O=C(Nc1ccc(Cl)cc1)c1cc(S(=O)(=O)Nc2n[nH]c(=O)n2-c2ccccc2)c(S)cc1Cl | > 100
50 | Cc1csc(-n2c(C)nc3cc(Cl)ccc3c2=O)n1 | > 100

tested on: SF-295 CNS; experiment: NCI-60 cell line screen, 48 h

Row | Compound | TGI [µM]
51 | CC1(C)CC(=O)C2=C(C1)OC1(CC2c2ccc(Cl)cc2)CC(c2ccc(Cl)cc2)C2=C(CC(C)(C)CC2=O)O1 (centres undefined) | > 53.2
52 | O=C(O)c1ccc(N/C(=C(/C(Cl)=C(Cl)Cl)[N+](=O)[O-])n2nnc3ccccc32)cc1 | > 100
53 | O=c1c2ccccc2nc(-c2ccccc2)n1NC(=S)Nc1cccc(Cl)c1 | > 100
54 | CCn1c2ccccc2c2cc(Nc3cc(C)[nH]c(=O)n3)ccc21 | > 100
55 | C(#Cc1ccccc1)SC1=C(c2ccccc2)S/C(=C(\SC#Cc2ccccc2)c2ccccc2)S1 | > 100
56 | COC(=O)c1cc(/C=C\c2cc(OC)ccc2OC)ccc1OC | > 100
57 | CCOC(=O)C(C(=O)COC(C)(C)C)[C@@H]1C=C[C@H](OC(C)=O)C1 (some centres undefined) | > 100
58 | CCOC(=O)CC(NC(=O)c1ccc(N=NN(C)C)cc1)C(=O)OCC (centres undefined) | > 100
59 | CN(C)CN(C)c1nc(N(C)C)nc(N(C)CN(C)C)n1 | > 100
60 | O=C(Cc1ccccc1)NN1C(=O)/C(=C\c2ccccc2O)SC1=Nc1ccccc1 | > 100
61 | COc1ccc2c(c1)CCC/C2=N\NS(=O)(=O)c1c(C)cc(C)cc1C | 94.6
62 | CSCCCNC(=O)[C@H](CSC)NC(=O)c1csc(CCNC(=O)[C@@H](NSc2ccccc2[N+](=O)[O-])C(C)O)n1 (some centres undefined) | > 100
63 | CN(C)/C=C/C=C(/C=N/S(=O)(=O)C(F)(F)F)C1C=CN(S(=O)(=O)C(F)(F)F)C=C1 | > 100
64 | Cc1ccc(S(=O)(=O)Nn2c(O)c(C#N)c(-c3ccc([N+](=O)[O-])cc3)c(C#N)c2=O)cc1 | > 100
65 | CC(C)[Si](OCC1CC(C#N)OC(C)(C)O1)(C(C)C)C(C)C (centres undefined) | 29.3
66 | CC(=O)Nc1ccc(-c2nnc(SCC(=O)Nc3ccc(Cl)cc3)o2)cc1 | 25.2
67 | Cc1ccccc1NC(=O)Cc1csc(N=Nc2c(O)[nH]c3ccccc23)n1 | 38
68 | FC(F)(F)c1ccc2nc(Sc3ccc4ccccc4c3)cnc2c1 | > 100
69 | COc1ccc2c([nH]c3c(O)c(-c4c(C)cc5c([nH]c6c(CC=C(C)C)c(OC)ccc65)c4O)c(C)cc32)c1CC=C(C)C | > 100
70 | COc1ccc(-n2cnc3c(NC(Cc4ccccc4)C(=O)O)ncnc32)cc1 (centres undefined) | > 100
71 | CC(=O)OCC1OC(n2c(-c3ccccc3)c(N=Nc3ccc(C)cc3)c(C)c(C#N)c2=S)C(OC(C)=O)C(OC(C)=O)C1OC(C)=O (centres undefined) | 97.2
72 | CN1CCC2(CC1)C(=NC1CCCCC1)NC(=O)N2c1ccccc1 | > 100
73 | CC(C)=NOC(=O)Nc1cccc2c1OCO2 | > 100
74 | Cc1ccc(/C=C2/N=C(N/N=C\c3ccccc3)NC2=O)cc1 | > 100
75 | O=C(Nc1ccc(Cl)cc1)c1cc(S(=O)(=O)Nc2n[nH]c(=O)n2-c2ccccc2)c(S)cc1Cl | > 100
76 | Cc1csc(-n2c(C)nc3cc(Cl)ccc3c2=O)n1 | > 100

tested on: SK-MEL-2 melanoma; experiment: NCI-60 cell line screen, 48 h

Row | Compound | TGI [µM]
77 | CC1(C)CC(=O)C2=C(C1)OC1(CC2c2ccc(Cl)cc2)CC(c2ccc(Cl)cc2)C2=C(CC(C)(C)CC2=O)O1 (centres undefined) | 43.8
78 | O=C(O)c1ccc(N/C(=C(/C(Cl)=C(Cl)Cl)[N+](=O)[O-])n2nnc3ccccc32)cc1 | > 100
79 | O=c1c2ccccc2nc(-c2ccccc2)n1NC(=S)Nc1cccc(Cl)c1 | > 100
80 | CCn1c2ccccc2c2cc(Nc3cc(C)[nH]c(=O)n3)ccc21 | > 100
81 | COC(=O)c1cc(/C=C\c2cc(OC)ccc2OC)ccc1OC | 74.2
82 | CCOC(=O)C(C(=O)COC(C)(C)C)[C@@H]1C=C[C@H](OC(C)=O)C1 (some centres undefined) | > 100
83 | CCOC(=O)CC(NC(=O)c1ccc(N=NN(C)C)cc1)C(=O)OCC (centres undefined) | > 100
84 | CN(C)CN(C)c1nc(N(C)C)nc(N(C)CN(C)C)n1 | 42.6
85 | O=C(Cc1ccccc1)NN1C(=O)/C(=C\c2ccccc2O)SC1=Nc1ccccc1 | > 100
86 | COc1ccc2c(c1)CCC/C2=N\NS(=O)(=O)c1c(C)cc(C)cc1C | > 100
87 | CSCCCNC(=O)[C@H](CSC)NC(=O)c1csc(CCNC(=O)[C@@H](NSc2ccccc2[N+](=O)[O-])C(C)O)n1 (some centres undefined) | > 100
88 | CN(C)/C=C/C=C(/C=N/S(=O)(=O)C(F)(F)F)C1C=CN(S(=O)(=O)C(F)(F)F)C=C1 | 54.1
89 | Cc1ccc(S(=O)(=O)Nn2c(O)c(C#N)c(-c3ccc([N+](=O)[O-])cc3)c(C#N)c2=O)cc1 | > 100
90 | CC(C)[Si](OCC1CC(C#N)OC(C)(C)O1)(C(C)C)C(C)C (centres undefined) | 30.6
91 | CC(=O)Nc1ccc(-c2nnc(SCC(=O)Nc3ccc(Cl)cc3)o2)cc1 | 49
92 | Cc1ccccc1NC(=O)Cc1csc(N=Nc2c(O)[nH]c3ccccc23)n1 | > 100
93 | FC(F)(F)c1ccc2nc(Sc3ccc4ccccc4c3)cnc2c1 | 66.3
94 | COc1ccc2c([nH]c3c(O)c(-c4c(C)cc5c([nH]c6c(CC=C(C)C)c(OC)ccc65)c4O)c(C)cc32)c1CC=C(C)C | > 100
95 | COc1ccc(-n2cnc3c(NC(Cc4ccccc4)C(=O)O)ncnc32)cc1 (centres undefined) | > 100
96 | CC(=O)OCC1OC(n2c(-c3ccccc3)c(N=Nc3ccc(C)cc3)c(C)c(C#N)c2=S)C(OC(C)=O)C(OC(C)=O)C1OC(C)=O (centres undefined) | 40.9
97 | CC(C)=NOC(=O)Nc1cccc2c1OCO2 | > 100
98 | Cc1ccc(/C=C2/N=C(N/N=C\c3ccccc3)NC2=O)cc1 | > 100
99 | O=C(Nc1ccc(Cl)cc1)c1cc(S(=O)(=O)Nc2n[nH]c(=O)n2-c2ccccc2)c(S)cc1Cl | > 100
100 | Cc1csc(-n2c(C)nc3cc(Cl)ccc3c2=O)n1 | > 100

tested on: SK-MEL-28 melanoma; experiment: NCI-60 cell line screen, 48 h

Row | Compound | TGI [µM]
101 | O=C1CC(c2ccccc2)S(=O)c2ccccc2N1 (centres undefined) | > 100
102 | CC1(C)CC(=O)C2=C(C1)OC1(CC2c2ccc(Cl)cc2)CC(c2ccc(Cl)cc2)C2=C(CC(C)(C)CC2=O)O1 (centres undefined) | 34
103 | O=C(O)c1ccc(N/C(=C(/C(Cl)=C(Cl)Cl)[N+](=O)[O-])n2nnc3ccccc32)cc1 | > 100
104 | O=c1c2ccccc2nc(-c2ccccc2)n1NC(=S)Nc1cccc(Cl)c1 | > 100
105 | CCn1c2ccccc2c2cc(Nc3cc(C)[nH]c(=O)n3)ccc21 | > 100
106 | C(#Cc1ccccc1)SC1=C(c2ccccc2)S/C(=C(\SC#Cc2ccccc2)c2ccccc2)S1 | > 100
107 | COC(=O)c1cc(/C=C\c2cc(OC)ccc2OC)ccc1OC | 59.7
108 | CCOC(=O)C(C(=O)COC(C)(C)C)[C@@H]1C=C[C@H](OC(C)=O)C1 (some centres undefined) | > 100
109 | CCOC(=O)CC(NC(=O)c1ccc(N=NN(C)C)cc1)C(=O)OCC (centres undefined) | > 100
